Data from ChEMBL document CHEMBL1134257, “Probing the transducin nucleotide binding site with GDP analogues” (Bioorg Med Chem Lett, 2001).

Experiment: Inhibitory concentration for heterotrimeric G protein, transducer

IC50 | Compound
500 µM | CCC(=O)O[C@H]1[C@@H](O)[C@H](n2cnc3c(O)nc(N)nc32)O[C@@H]1COP(=O)(O)NP(=O)(O)O
> 1000 µM | NCCOCCOc1nc(N)nc2c1ncn2C1O[C@H](COP(=O)(O)NP(=O)(O)O)[C@@H](O)[C@H]1O (stereo partly drawn)
12 µM | Nc1nc(O)c2ncn(C3O[C@H](COP(=O)(O)NP(=O)(O)O)[C@@H](O)[C@H]3O)c2n1 (stereo partly drawn)
> 1000 µM | NCCOCCOCCn1c(N)nc2c(ncn2C2O[C@H](COP(=O)(O)NP(=O)(O)O)[C@@H](O)[C@H]2O)c1=O (stereo partly drawn)
> 1000 µM | Nc1nc2c(ncn2[C@@H]2O[C@H](COC(=O)CP(=O)(O)O)C(O)C2O)c(=O)[nH]1 (single isomer, unassigned)
> 1000 µM | Nc1nc(O)c2ncn(C3O[C@H](COP(=O)(O)CC(=O)O)C(O)C3O)c2n1 (single isomer, unassigned)
> 1000 µM | Nc1nc(O)c2ncn(C3O[C@H](COC(=O)CC(=O)O)C(O)C3O)c2n1 (single isomer, unassigned)

Compound | IC50
Nc1nc2c(ncn2[C@@H]2O[C@H](COP(=O)(O)CP(=O)(O)O)C(O)C2O)c(=O)[nH]1 (single isomer, unassigned) [PHOSPHOMETHYLPHOSPHONIC ACID GUANOSYL ESTER] | > 1000 µM
